Measured values taken from patent publication US20060045881A1, “Anti-cancer vaccines” (Board of Regents, The University of Texas System, priority 2004, published 2006).
Values joined by “and” are separate entries in the source; they are usually repeats but may differ in a detail not shown here. Identical values can stand only once.

Tests used:
PR1-CTL = assay: Annexin V apoptosis of PR1-CTL challenged with peptide-pulsed T2 cells; format: cell-based, human; conditions: for apoptosis (Annexin V) of high avidity PR1-CTL: T2 pulsed with 20 μM peptide, 16 to 18 hr
Text: High PR1 concentration and proteinase 3-overexpressing CML cells induce apoptosis of high avidity PR1-specific CTL. […] All high avidity PR1-CTL exposed to high dose PR1 were dead after 36 to 48 hr of co-culture.

T2 cells = assay: 4-hr cytotoxicity of peptide-elicited CTL lines against peptide-loaded T2 cells
Experimental: CTL cytotoxicity assay. A semiautomated minicytotoxicity assay was used to determine specific lysis as described previously (Molldrem, 2000; Molldrem et al., 1996). Briefly, effector cells were prepared in doubling dilutions from 6×10^3 to 25×10^3 cells/well and were plated in 40 μl, 60-well Terasaki trays (Robbins Scientific, Sunnyvale, Calif., USA) with six replicates per dilution. Target cells (T2 cells, marrow-derived leukemic cells, or BM from a healthy donor) at a concentration of 2×10^6 cells/ml were stained with 10 μg/ml of Calcein-AM (Molecular Probes Inc.) for 60 min at 37° C. After washing three times in CM plus 10% AB, target cells were resuspended at 10^5 cells/ml, and 10^3 target cells in 10 μl medium were added to each well containing effector cells. Wells with target cells alone and medium alone were used for maximum (max) and minimum (min.) fluorescence emission, respectively. After 4 hr incubation at 37° C. in 5% CO2, 5 μl FluoroQuench (One Lambda Inc., Canoga Park, Calif., USA) was added to each well, and the trays were centrifuged for 1 min at 60 g before measurement of fluorescence using an automated CytoFluor II plate reader (PerSeptive Biosystems, Framingham, Mass., USA). The percentage of lysis was calculated as follows: % lysis={1−[(mean experimental mission−mean min.)/(mean max−mean min.)]}×100%.
Induction of Primary CTL responses to peptides. These peptides were next used to stimulate T cells specific for peptide-coated targets. PBMC from a normal healthy donor heterozygous for HL-A2.1 were stimulated with peptide-pulsed T2 cells. […] Briefly, T2 cells (which co-express the costimulatory molecule B7.1) were washed 3 times in serum-free RPMI culture media supplemented with penicillin/streptomycin and glutamine (CM) and incubated with peptide at 20 μg/mL for 2 hr in CM. The peptide loaded T2 cells were then irradiated with 7500 cGy, washed once, and suspended with freshly isolated PBMC at a 1:1 ratio in CM supplemented with 10% human serum (HS) (Sigma, St. Louis, Mo.). […]

[1] = test system: marrow cells from a normal healthy donor; assay: Cytotoxicity of peptide-elicited CTL against normal donor marrow cells; format: cell-based, human
Text: (§1) PR1 specific CTL preferentially lyse human myeloid leukemia cells. It was next determined whether the PR1-specific CTL line was capable of lysing allogeneic human myeloid leukemia cells from HLA-A2.1 positive individuals. As controls, two cell lines expressing low levels of Pr3 were used: HLA-A2.1 transfected K562 cells and U937 cell line which lack HLA-A2.1 and would therefore be incapable of presenting peptides in an HLA-A2.1-restricted manner. Cryopreserved bone marrow cells from patients P1-P4, and marrow cells from a healthy normal volunteer (D2, a bone marrow donor for an allogeneic bone marrow transplant performed on patient P3) were thawed and used as targets for the PR1-specific CTL line.
(§2) It was next determined whether the MY2 and MY4-specific CTL lines were capable of lysing allogeneic human myeloid leukemia cells from HLA-A2.1 positive individuals. The targets were BM cells from pre-transplant HLA-A2.1-positive AML patients. As controls, BM cells from HLA-A2.1-negative AML patients, BM from HLA-A2.1-positive healthy donors and two cell lines expressing low levels of MPO were used: HLA-A2.1 transfected K562 cells and the U937 cell line which lacks HLA-A2.1 and would therefore be incapable of presenting peptides in an HLA-A2.1-restricted manner.

[2] = test system: human myeloid leukemia cells; assay: Cytotoxicity of peptide-elicited CTL against HLA-A2.1-positive myeloid leukemia marrow cells; format: cell-based; conditions: for lysis of HLA-A2.1-positive AML marrow cells by peptide-specific CTL: MY2: E:T 5:1
Text: as §1, §2

HLA-A2.1 = HLA-A2.1 (Homo sapiens, UniProt P04439, D140Y/D185E/D98H/E176V/E277Q/G131W/G231S/I119V/I121R/I166T/I218V/L300P/L318F/N151K/N90K/P208A/P217A/Q86G/Q94H/R138H/R169H/T345S); assay: HLA-A2.1 surface expression on peptide-coated T2 cells (indirect flow cytometry, BB7.2); format: binding; conditions: compared with T2 without peptide / control influenza peptide
Experimental: Cell lines and peptide binding. T2 cells (American Type Culture Collection, Rockville, Md., USA) were maintained in culture in CM plus 10% FBS (Atlanta Biologicals Inc., Norcross, Ga., USA). PR1 peptide was incubated at increasing concentrations for 18 hr at 37° C. with 100 μg/ml β2m (Sigma-Aldrich) with 10^6 T2 cells in 1 ml CM. Cells were washed twice with CM, stained with BB7.2 Ab, washed again, and then stained with FITC-labeled secondary Ab (Becton Dickinson Immunocytometry Systems, San Jose, Calif., USA).
T2 cells are a human lymphocyte line that lacks TAP1 and TAP2 genes and therefore cannot present endogenous MHC class I restricted antigens. If the peptide effectively bound HLA-A2.1, it stabilized the complex with (β2-microglobulin and increased HLA-A2.1 surface expression, which could be measured using flow cytometry. An HLA-A2.1 specific monoclonal antibody (BB7.2, ATCC, Rockville, Md.) followed by a FITC-labeled secondary antibody (CalTag Laboratories, Burlingame, Calif.) was used to measure surface expression of HLA-A2.1.
T2 cells are a human lymphocyte line that lacks TAP1 and 2 genes and cannot therefore present endogenous MHC class I restricted antigens. If the peptide effectively bound HLA-A2.1, it stabilized the complex with β2-microglobulin and increased HLA-A2.1 surface expression, which could be measured using flow cytometry. An HLA-A2.1 specific monoclonal antibody (BB7.2, ATCC, Rockville, Md.) followed by a FITC-labeled secondary antibody (CALTAG) was used to measure surface expression of HLA-A2.1. […] The labeled heterotrimer complex was separated from unincorporated β2-microglobulin by high-performance liquid

AML CFU-GM = assay: CFU-GM colony inhibition by MY4-pulsed CTL, AML marrow; format: cell-based, human; conditions: patient P1 (M2-AML) and P2 (M4-AML), respectively; 13 day MY4-pulsed CTL
Text: (§3) In contrast there was no inhibition of CFUGM from normal marrow, D1 and D2, the corresponding HLA identical marrow donors for P1 and P2.

[3] = test system: CFU-GM from normal marrow; assay: CFU-GM colony inhibition by MY4-pulsed CTL, normal marrow; format: cell-based, human; conditions: D1 and D2, HLA identical marrow donors
Text: as §3

[4] = test system: HMy2.CIR-A2 cells transfected with Pr3; assay: PR1-specific CTL lysis of Pr3-transfected HMy2.CIR-A2 cells; format: cell-based, human; conditions: clone 1.4; E:T 25:1
Experimental: Expression of proteinase 3 following transfection into and HMy2.CIR and HMy2.CIR-A2 cells. […] The parental HMy2.CIR cell line, which has lost expression of HLA-A and -B, and the HLA-A2.1-transfected HMy2.CIR cells (named HMy2.CIR-A2), were both transfected with Pr3 as described below.
Ten million HMy2.CIR (ATCC, Rockville, Md.), or 10 million HMy2.CIR-A2 cells were each washed in phosphate buffered saline (PBS) and re-suspended in 0.8 mL of ice-cold PBS and put into an electroporation cuvette with 20 μg of circular plasmid DNA. The mixture was exposed to an electric pulse of 320 volts at 960 microF and incubated on ice for 10 min. Cells were then added to 10 mL of pre-warmed CM. The following day, the CM was replaced. On day 2, cells were grown under selection conditions using 200 μg/mL Zeocin. Following one week of selection, the cells were subcloned by limiting dilution under Zeocin selection, and 6 clones were isolated.
HMy.2.CIR-A2 cells transfected with Pr3 are susceptible to lysis by PR1 specific CTL. It was next determined whether the transfected HMy2.CIR-A2 cells could be lysed by PR1 specific CTL. The PR1 specific CTL were elicited in the manner previously described, and after 22 days in culture were combined at a 25:1 E:T ratio with HMy2.CIR-A2 transfected either with the Pr3-containing vector pRTZ.2, or the empty vector containing the reporter gene, CAT. […]

[5] = test system: PBMC from HLA-A2.1+ healthy donors; assay: In vitro elicitation of PR1-CTL from PBMC with peptide-pulsed APC, PR1/HLA-A2 tetramer staining; format: cell-based, human
Experimental: Peptide-specific CTLs were expanded in culture using methods described previously (Molldrem et al., 1996; Molldrem et al., 1997). Briefly, PBMCs from healthy donors or CML patients were stimulated in vitro with PR1, pp65, or flu peptides. T2 cells were washed three times in serum-free CM and incubated with peptide at the indicated peptide concentration for 2 hr in CM.
Ab's and flow cytometry. For routine surface-antigen staining, 10^6 PBMCs were incubated at 4° C. with Ab. After washing, cells were incubated with FITC-labeled CD8 (Caltag Laboratories Inc., Burlingame, Calif., USA) for 30 min on ice. Surface expression of TCR was determined with FITC-labeled TCR-αβ (PharMingen, San Diego, Calif., USA), and annexin V using FITC-labeled Ab (Caltag Laboratories). Proteinase 3 expression was determined with primary mouse Ab (Accurate Chemical & Scientific Corp., Westbury, N.Y., USA). Mouse monoclonal anti-HLA-A2.1 Ab BB7.2 and anti-HLA-ABC w6/32 were derived from culture supernatants of a hybridoma cell lines (American Tissue Culture Collection). Cells were washed and fixed in 2% paraformaldehyde and analyzed on a FACScan (Becton Dickinson Immunocytometry Systems), and data were analyzed using CELLQuest (Becton Dickinson Immunocytometry Systems) software. The minimum concentration of tetramer necessary to show distinctly different avidities was determined in titration experiments. Each tetramer reagent was titered individually and used at the optimal concentration. The tetramer concentration showing the maximal separation of fluorescence intensity of CTL populations was generally 10-20 μg/ml. Propidium iodide (PI) (Becton Dickinson Immunocytometry Systems) staining (1 μg/ml) was performed to exclude dead cells, according to the manufacturer's instructions. A “dump” channel was used with tetramer staining to eliminate monocytes and B lymphocytes with nonspecific binding to the HLA-A2 heavy chain by staining with PerCP-labeled CD14 and CD19 (both Becton Dickinson Immunocytometry Systems).
PR1-specific CTL with high and low TCR avidity can be elicited from healthy donors. To determine whether high and low avidity PR1-CTL are present in healthy donors, a modified tetramer staining technique (Savage et al., 1999) using limiting tetramer concentration to visualize high and low fluorescence intensity tetramer+ cells, which correlates with high and low TCR avidity was utilized. Sufficient PR1-CTL was elicited by stimulating PBMC with increasing peptide concentrations for 28 days. PBMC from an HLA-A2.1+ healthy donor stimulated weekly for 28 days with 0.2 μM PR1 elicited 1.3% high intensity PR1/HLA-A2 tetramer-staining CTL with a median channel of fluorescence (MCF) of 293 (high avidity PR1-CTL), while stimulation with 20 μM PR1 produced 3.1% low avidity (MCF=93) PR1-specific CTL (FIG. 11A). […] Cultures stimulated with 2 μM PR1 produced fewer PR1-specific CTL with mixed TCR avidities, while stimulation with ≦0.02 μM PR1 induced <0.1% PR1-CTL. […] To further verify that tetramer staining intensity correlates with TCR avidity, the kinetics of tetramer staining decay was determined using previously described techniques (Savage et al., 1999).

[6] = test system: HLA-A2+ patients with CML, AML or MDS; assay: Phase I/II PR1 peptide vaccine study in myeloid leukemia patients; format: in vivo, human
Experimental: PR1 peptide is injected subcutaneously in incomplete Freund's adjuvant every 3 weeks for 3 injections to induce a PR1 specific host response against the myeloid leukemia. Both in Phase I and in Phase II, patients will also be evaluated for signs of immune reactivity. […] The amount of Proteinase 3 expression in the leukemia cells is studied by cytoplasmic flow cytometry analysis. Any clinical responses (defined by standard criteria as hematological and/or cytogenetic responses) will be correlated with the in vitro testing. Vaccination at 3 dose levels of peptide with a fixed amount of IFA will be conducted, and stopping criteria will be guided by established toxicity criteria.
HLA-A2^+ patients with CML (interferon-resistant or relapsed after BMT), AML (smoldering relapse or ≧2nd CR) or MDS (RAEB or RAEBt) with no detectable antibodies to proteinase 3 (no detectable cANCA) were eligible. Patients that relapsed after BMT or those ineligible for BMT were also eligible for study. […]
Secondarily, clinical responses were assessed by standard criteria with bone marrow biopsy, cytogenetic studies (standard chromosome banding) and molecular studies (PCR for bcr-abl or other known abnormalities such as t(15;17), inv16, etc.) 3 weeks after the last vaccination. Patients were seen and evaluated in clinic every 3 weeks during the study period. […]

[7] = T2 loaded with 1.0 μg/mL of same peptide, varying E:T

Influenza nucleoprotein: control influenza peptide, Influenza B nucleoprotein (aa 85-94), known high binding affinity to HLA-A2.1 (KLGEFYNQMM) [reference compound]
apoptosis (Annexin V) of high avidity PR1-CTL (PR1-CTL): no apoptosis was observed

KLLLALAGL [MY2]
specific lysis of peptide-loaded T2 cells by CTL line generated against the peptide (T2 cells; T2 loaded with 2.0 μg/mL of same peptide): high specific lysis | lysis of HLA-A2.1-positive normal healthy donor marrow cells by MY2-specific CTL ([1]; E:T 20:1): 43% | lysis of HLA-A2.1-positive AML marrow cells by peptide-specific CTL [2]: readily lysed

KLNDILLIQL [PR7I]
surface HLA-A2.1 expression on peptide-pulsed T2 cells (in words) (HLA-A2.1): strong peptide binding

KLNDVLLIQL [PR7V]
surface HLA-A2.1 expression on peptide-pulsed T2 cells (in words) (HLA-A2.1): strong peptide binding

RLFEQVMRI [MY4]
specific lysis of HLA-A2+ normal BMC by peptide-specific CTL [1]: not normal cells | inhibition of CFU-GM (AML CFU-GM): 63% and 34% | lysis of HLA-A2.1-positive AML marrow cells by peptide-specific CTL [2]: killed AML cells | inhibition of CFU-GM from normal marrow [3]: no inhibition

RLFPDFFTRV [PR2]
specific lysis of peptide-loaded T2 cells by CTL line generated against the peptide (T2 cells; [7]): did not demonstrate any significant cytotoxicity | surface HLA-A2.1 expression on peptide-pulsed T2 cells (in words) (HLA-A2.1): increased surface HLA-A2.1 expression

VLQELNVTV [PR1]
specific lysis of Pr3-transfected cells by PR1-specific CTL [4]: 36% | specific lysis of peptide-loaded T2 cells by CTL line generated against the peptide (T2 cells; [7]): high specific lysis | % of bulk culture CTL double-positive (CD8, PR1-tetramer) ([5]; 32 day-old PR1-stimulated CTL culture): 4.3% | % PR1/HLA-A2 tetramer-staining CTL ([5]; PBMC stimulated weekly 28 days with 0.2 μM PR1 (high avidity)): 1.3% | % of CTL line specific for PR1 (PR1-tetramer/CD8) ([5]; day 17 CTL line elicited against PR1): 2.4% | % PR1/HLA-A2 tetramer-staining CTL ([5]; stimulated with 20 μM PR1 (low avidity)): 3.1% | % PR1-CTL induced ([5]; stimulation with ≦0.02 μM PR1): < 0.1% | lysis of normal donor marrow cells by PR1-specific CTL ([1]; donor D2): < 20% | specific lysis of CML blast crisis marrow cells by PR1-specific CTL ([2]; CML-BC, E:T 25:1): 73% | lysis of CML #3 BM cells by patient CTL elicited with 0.2 μM PR1 ([2]; CTL from patients CML #1 and CML #2, respectively, E:T 20:1): 24%±5% and 33%±6% | specific lysis of CML marrow cells by PR1-specific CTL ([2]; P1, CML in chronic phase, E:T 6:1): 53% | apoptosis (Annexin V) of high avidity PR1-CTL (PR1-CTL): underwent apoptosis | apoptosis (Annexin V) of low avidity PR1-CTL (PR1-CTL; high or low concentrations of PR1): did not undergo apoptosis | surface HLA-A2.1 expression on peptide-pulsed T2 cells (in words) (HLA-A2.1): increased surface HLA-A2.1 expression | patients with complete remission ([6]; 9 patients (1 AML and 1 CML)): 2 patients | patients in whom PR1-specific CTL immunity was elicited (tetramer staining) ([6]; 9 patients, 0.25, 0.5 or 1.0 mg every 3 weeks x3): 6 of 9
